Assay results: ChEMBL document CHEMBL3600303, “The N-Terminal T-T Motif of a Third-Generation HIV-1 Fusion Inhibitor Is Not Required for Binding Affinity and Antiviral Activity” (J Med Chem, 2015)
Activity calls are given as the source filed them. The rule behind the calls is not given here.

Key:
[1] = test system: Human immunodeficiency virus 1; experiment: Ratio of IC50 for ENF-resistant HIV1 NL4-3 harboring gp41 N-terminal heptad repeat D36G mutant to IC50 for wild type HIV1 NL4-3; type: functional
[2] = molecular target: Envelope glycoprotein gp160 (Human immunodeficiency virus type 1 group M subtype B (isolate HXB2)(HIV-1)) (UniProt P04578); experiment: Binding affinity to HIV-1 HXB2 gp41 N-terminal heptad repeat assessed as thermostability of protein-compound complex at 10 uM after 30 mins by CD spectroscopic analysis; settings: Human immunodeficiency virus 1
[3] = test system: Human immunodeficiency virus 1; experiment: Antiviral activity against wild type HIV1 NL4-3 infected in human TZM-bl cells assessed as inhibition of viral replication after 2 days by luciferase reporter gene assay; type: functional, organism-based; settings: Human immunodeficiency virus 1, NL4-3, TZM-bl, 48 h
[4] = test system: Human immunodeficiency virus 1; experiment: Ratio of IC50 for ENF-resistant HIV1 NL4-3 harboring gp41 N-terminal heptad repeat V38A/N42T double mutant to IC50 for wild type HIV1 NL4-3; type: functional
[5] = molecular target: Envelope glycoprotein gp160 (Human immunodeficiency virus type 1 group M subtype B (isolate HXB2)(HIV-1), UniProt P04578); experiment: Binding affinity to HIV-1 HXB2 gp41 N-terminal heptad repeat assessed as inhibition of 6-helix bundle formation after 30 mins by ELISA; set-up: species or system Human immunodeficiency virus 1
[6] = test system: Human immunodeficiency virus 1; experiment: Antiviral activity against HIV-1 ZM214M.15 pseudovirus infected in human TZM-bl cells assessed as inhibition of viral entry into cells after 48 hrs by single-cycle infection assay; type: functional, organism-based; settings: Human immunodeficiency virus 1, ZM214M.15, TZM-bl
[7] = test system: Human immunodeficiency virus 1; experiment: Antiviral activity against ENF-resistant HIV1 NL4-3 harboring gp41 N-terminal heptad repeat D36S/V38M double mutant infected in human TZM-bl cells assessed as inhibition of viral entry into cells after 48 hrs by single-cycle infection assay; type: functional, organism-based
[8] = molecular target: Envelope glycoprotein gp160 (Human immunodeficiency virus 1) (UniProt Q72502); experiment: Binding affinity to HIV1 NL4-3 gp41 N-terminal heptad repeat I37T mutant after 30 mins by CD spectroscopic analysis
[9] = test system: Human immunodeficiency virus 1; experiment: Antiviral activity against ENF-resistant HIV1 NL4-3 harboring gp41 N-terminal heptad repeat D36G mutant infected in human TZM-bl cells assessed as inhibition of viral entry into cells after 48 hrs by single-cycle infection assay; type: functional, organism-based
[10] = test system: Human immunodeficiency virus 1; experiment: Antiviral activity against ENF-resistant HIV1 NL4-3 harboring gp41 N-terminal heptad repeat V38M mutant infected in human TZM-bl cells assessed as inhibition of viral entry into cells after 48 hrs by single-cycle infection assay; type: functional, organism-based
[11] = test system: Human immunodeficiency virus 1; experiment: Antiviral activity against HIV-1 SC42261.8 pseudovirus infected in human TZM-bl cells assessed as inhibition of viral entry into cells after 48 hrs by single-cycle infection assay; type: functional, organism-based; settings: Human immunodeficiency virus 1, SC42261.8, TZM-bl
[12] = test system: Human immunodeficiency virus 1; experiment: Antiviral activity against ENF-resistant HIV1 NL4-3 harboring gp41 N-terminal heptad repeat V38A mutant infected in human TZM-bl cells assessed as inhibition of viral entry into cells after 48 hrs by single-cycle infection assay; type: functional, organism-based
[13] = molecular target: Envelope glycoprotein gp160 (Human immunodeficiency virus 1) (UniProt Q72502); experiment: Binding affinity to HIV1 NL4-3 gp41 N-terminal heptad repeat V38A/N42T double mutant after 30 mins by CD spectroscopic analysis
[14] = test system: Human immunodeficiency virus 1; experiment: Ratio of IC50 for ENF-resistant HIV1 NL4-3 harboring gp41 N-terminal heptad repeat V38A mutant to IC50 for wild type HIV1 NL4-3; type: functional
[15] = molecular target: Envelope glycoprotein gp160 (Human immunodeficiency virus 1) (UniProt Q72502); experiment: Binding affinity to HIV1 NL4-3 gp41 N-terminal heptad repeat Q40H mutant after 30 mins by CD spectroscopic analysis
[16] = molecular target: Envelope glycoprotein gp160 (Human immunodeficiency virus 1) (UniProt Q72502); experiment: Binding affinity to HIV1 NL4-3 gp41 N-terminal heptad repeat I37T/N43K double mutant after 30 mins by CD spectroscopic analysis
[17] = test system: Human immunodeficiency virus 1; experiment: Antiviral activity against wild type HIV-1; type: functional, organism-based
[18] = test system: Human immunodeficiency virus 1; experiment: Antiviral activity against ENF-resistant HIV1 NL4-3 harboring gp41 N-terminal heptad repeat V38A/N42T double mutant infected in human TZM-bl cells assessed as inhibition of viral entry into cells after 48 hrs by single-cycle infection assay; type: functional, organism-based
[19] = test system: Human immunodeficiency virus 1; experiment: Ratio of IC50 for ENF-resistant HIV1 NL4-3 harboring gp41 N-terminal heptad repeat V38M mutant to IC50 for wild type HIV1 NL4-3; type: functional
[20] = test system: Human immunodeficiency virus 1; experiment: Antiviral activity against HIV-1 SF162 pseudovirus infected in human TZM-bl cells assessed as inhibition of viral entry into cells after 48 hrs by single-cycle infection assay; type: functional, organism-based; settings: Human immunodeficiency virus 1, SF162, TZM-bl
[21] = test system: Human immunodeficiency virus 1; experiment: Ratio of IC50 for ENF-resistant HIV1 NL4-3 harboring gp41 N-terminal heptad repeat D36S/V38M double mutant to IC50 for wild type HIV1 NL4-3; type: functional
[22] = molecular target: Envelope glycoprotein gp160 (Human immunodeficiency virus 1) (UniProt Q72502); experiment: Binding affinity to HIV1 NL4-3 gp41 N-terminal heptad repeat N43K mutant after 30 mins by CD spectroscopic analysis
[23] = test system: Human immunodeficiency virus 1; experiment: Ratio of IC50 for ENF-resistant HIV1 NL4-3 harboring gp41 N-terminal heptad repeat I37T/N43K double mutant to IC50 for wild type HIV1 NL4-3; type: functional
[24] = test system: Human immunodeficiency virus 1; experiment: Antiviral activity against ENF-resistant HIV1 NL4-3 harboring gp41 N-terminal heptad repeat I37T/N43K double mutant infected in human TZM-bl cells assessed as inhibition of viral entry into cells after 48 hrs by single-cycle infection assay; type: functional, organism-based
[25] = molecular target: Envelope glycoprotein gp160 (Human immunodeficiency virus 1) (UniProt Q72502); experiment: Binding affinity to HIV1 NL4-3 gp41 N-terminal heptad repeat G36D mutant after 30 mins by CD spectroscopic analysis
[26] = test system: Human immunodeficiency virus 1; experiment: Antiviral activity against HIV1 NL4-3 pseudovirus infected in human TZM-bl cells assessed as inhibition of viral entry into cells after 48 hrs by single-cycle infection assay; type: functional, organism-based; settings: Human immunodeficiency virus 1, NL4-3, TZM-bl
[27] = test system: Human immunodeficiency virus 1; experiment: Antiviral activity against wild type HIV1 NL4-3 infected in human TZM-bl cells assessed as inhibition of viral entry into cells after 48 hrs by single-cycle infection assay; type: functional, organism-based; settings: Human immunodeficiency virus 1, NL4-3, TZM-bl
[28] = test system: Human immunodeficiency virus 1; experiment: Ratio of IC50 for ENF-resistant HIV1 NL4-3 harboring gp41 N-terminal heptad repeat I37T mutant to IC50 for wild type HIV1 NL4-3; type: functional
[29] = test system: Human immunodeficiency virus 1; experiment: Antiviral activity against HIV-1 pseudovirus harboring Q66R/N126K double mutant; type: functional, organism-based
[30] = Thermostability of the compound in PBS assessed as melting temperature at 20 uM by CD spectroscopic analysis; type: physicochemical; settings: buffer
[31] = test system: Envelope glycoprotein gp160 (Human immunodeficiency virus 1), Q72502 [V38A]; experiment: Binding affinity to HIV1 NL4-3 gp41 N-terminal heptad repeat V38A mutant after 30 mins by CD spectroscopic analysis
[32] = test system: Human immunodeficiency virus 1; experiment: Antiviral activity against ENF-resistant HIV1 NL4-3 harboring gp41 N-terminal heptad repeat I37T mutant infected in human TZM-bl cells assessed as inhibition of viral entry into cells after 48 hrs by single-cycle infection assay; type: functional, organism-based
Serum = experiment: Metabolic stability in Sprague-Dawley rat serum at 4 mg/kg, ip measured at 0.5 to 2 hrs post dose; type: ADME, organism-based; settings: in vivo
[33] = test system: Human immunodeficiency virus 1; experiment: Ratio of IC50 for ENF-resistant HIV1 NL4-3 harboring gp41 N-terminal heptad repeat N43K mutant to IC50 for wild type HIV1 NL4-3; type: functional
[34] = test system: Human immunodeficiency virus 1; experiment: Antiviral activity against ENF-resistant HIV1 NL4-3 harboring gp41 N-terminal heptad repeat Q40H mutant infected in human TZM-bl cells assessed as inhibition of viral entry into cells after 48 hrs by single-cycle infection assay; type: functional, organism-based
[35] = test system: Human immunodeficiency virus 1; experiment: Antiviral activity against ENF-resistant HIV1 NL4-3 harboring gp41 N-terminal heptad repeat N43K mutant infected in human TZM-bl cells assessed as inhibition of viral entry into cells after 48 hrs by single-cycle infection assay; type: functional, organism-based
[36] = test system: Human immunodeficiency virus 1; experiment: Ratio of IC50 for ENF-resistant HIV1 NL4-3 harboring gp41 N-terminal heptad repeat Q40H mutant to IC50 for wild type HIV1 NL4-3; type: functional

Compound: CC[C@H](C)[C@H](NC(=O)[C@H](C)NC(=O)[C@H](CCCNC(=N)N)NC(=O)[C@H](CC(=O)O)NC(=O)[C@H](Cc1c[nH]c2ccccc12)NC(=O)[C@H](C)NC(=O)[C@H](CCC(=O)O)NC(=O)[C@H](Cc1c[nH]c2ccccc12)NC(=O)[C@@H](NC(=O)[C@@H](N)[C@@H](C)O)[C@@H](C)O)C(=O)N[C@@H](C)C(=O)N[C@@H](CCC(=O)O)C(=O)N[C@@H](Cc1ccc(O)cc1)C(=O)N[C@@H](C)C(=O)N[C@@H](C)C(=O)N[C@@H](CCCNC(=N)N)C(=O)N[C@H](C(=O)N[C@@H](CCC(=O)O)C(=O)N[C@@H](C)C(=O)N[C@@H](CC(C)C)C(=O)N[C@H](C(=O)N[C@@H](CCCNC(=N)N)C(=O)N[C@@H](C)C(=O)N[C@@H](C)C(=O)N[C@@H](CCC(N)=O)C(=O)N[C@@H](CCC(=O)O)C(=O)N[C@@H](CCC(N)=O)C(=O)N[C@@H](CCC(N)=O)C(=O)N[C@@H](CCC(=O)O)C(=O)N[C@@H](CCCCN)C(=O)N[C@@H](CC(N)=O)C(=O)N[C@@H](CCC(=O)O)C(=O)N[C@@H](C)C(=O)N[C@@H](C)C(=O)N[C@@H](CC(C)C)C(=O)N[C@@H](CCCNC(=N)N)C(=O)N[C@@H](CCC(=O)O)C(=O)N[C@@H](CC(C)C)C(=O)O)[C@@H](C)CC)[C@@H](C)CC
- Ratio IC50 [1]: 1.6
- Tm [2]: 82.2 °C
- IC50 [3]: 0.52 nM
- Ratio IC50 [4]: 0.7
- IC50 [5]: 67.5 nM
- IC50 [6]: 0.68 nM
- IC50 [7]: 1.2 nM
- Activity [8]: Active
- IC50 [9]: 1.7 nM
- IC50 [10]: 1.8 nM
- IC50 [11]: 2.64 nM
- IC50 [12]: 1.3 nM
- Activity [13]: Active
- Ratio IC50 [14]: 1.2
- Activity [15]: Active
- Activity [16]: Active
- IC50 [17]: 1.32 nM
- IC50 [18]: 0.8 nM
- Ratio IC50 [19]: 1.6
- IC50 [20]: 12.5 nM
- Ratio IC50 [21]: 1.1
- Activity [22]: Active
- Ratio IC50 [23]: 1.6
- IC50 [24]: 1.7 nM
- Activity [25]: Active
- IC50 [26]: 1.15 nM
- IC50 [27]: 1.1 nM
- Ratio IC50 [28]: 1.6
- IC50 [29]: 8.36 nM
- Tm [30]: 45.1 °C
- Activity [31]: Active
- IC50 [32]: 1.8 nM
- Stability (Serum): Stable
- Ratio IC50 [33]: 1.9
- IC50 [34]: 1.4 nM
- IC50 [35]: 2.1 nM
- Ratio IC50 [36]: 1.3
